Measurements as given in publication PMC6214004, “Novel C15 Triene Triazole, D-A Derivatives Anti-HepG2, and as HDAC2 Inhibitors: A Synergy Study” (International Journal of Molecular Sciences, 2018).
≈ marks a conversion by molar mass, not a printed value. Like-named read-outs stand apart in the source and are kept apart here. One block for each compound: values may come before it.

What was measured:
[1] = test system: human normal hepatocytes (LO2); assay: MTT assay, inhibition (toxicity) of LO2 cell proliferation; format: cell-based; conditions: Hepatocyte, 72 h, read-out: inhibitory activity against LO2, IC50
Description: Preliminary in vitro screening results of the title compounds for antitumor activity against HepG2 (human hepatocellular carcinoma) and human normal hepatocytes (LO2) were determined by MTT assay (thiazolyl blue salt colorimetry) (see Figure 1 and Figure 2).
(§1) Firstly, sucked out the original medium when the cell coverage in the culture bottle had reached 80% ~ 90%. Secondly, added appropriate trypsin (0.25%) to digest the cells for 1~2 min until they became round. Mixed the equal volume of serum-containing medium to terminate the digestion.
Thirdly, use pipette to percuss cells and make them suspend. Then, sucked the cells into a 15 mL centrifuge tube and centrifuge them for 5 min. At last, dropped the supernatant, add 1~2 mL medium to suspend the cells, and cultivated them in the culture bottle. […]
(§2) Cell proliferation measured by MTT
First of all, digested the cells and counted them. Added 100 μL cell suspension (3×10^4 /ml) into each hole of the 96 holes cell culture plate. Secondly, placed the 96 holes cell culture plate in a 5% CO2 culture box for 24 h at 37℃. Then, used the medium to dilute the drug into the desired working fluid concentration, added 100 μL per hole to the corresponding drug medium, and established a negative control group as well as a positive control group (paclitaxel, 20 ug/ml). Next, placed 96 holes cell culture plate at 37℃ and cultivated the cells in a 5% CO2 incubator for 72 h. After treating 96 holes board with MTT staining, estimated the OD value: a. Added 20 μL MTT (5 mg/ml) per hole, and cultivated cells in the box for 4 h. b. Discarded the supernatant, added 150 μL DMSO in each hole, and mixed them gently after treatment with shaker for 10 min. c. Under 490nm ultraviolet wavelength, read the OD value from ELISA.
Finally, figured up the inhibition rate of each group
*The inhibition rate (%) = (negative control group OD value - experimental group OD value) / negative control group OD value ×100%. […]
The next day, joined the corresponding drug-containing medium after the cells adhered. And established the negative control group at the same time. After 72 h, use 0.25% pancreatin (not contain EDTA) to digest the cells. Thirdly, applied PBS to scrub the cells (centrifuge them at 2000 rpm for 5min), and collected 5×10^5 cells. Then, used a volume fraction of 70% ethanol to fix the single cell suspension for 2 h (or overnight), and stored it at 4℃. Before washing, employed PBS to remove the fixative solution (if needed, filter cell suspension through 200 mesh). Added […] RNase A, and made it in water bath at 37℃ for 30 min. Later, placed it at 4℃ for 30 min without light. […]
Detection of apoptosis by Annexin-V FITC/PI double staining
Firstly, inoculated the logarithmic growth cells into the six-hole plate. […]

[2] = test system: HepG2 (human hepatocellular carcinoma); assay: MTT assay, inhibition of HepG2 cell proliferation; format: cell-based
Description: Preliminary in vitro screening results of the title compounds for antitumor activity against HepG2 (human hepatocellular carcinoma) and human normal hepatocytes (LO2) were determined by MTT assay (thiazolyl blue salt colorimetry) (see Figure 1 and Figure 2). […]
All analyses were carried out with SPSS 19.0 software (SPSS, Chicago, IL, USA). […]
The measurement data material of the experimental were described by x±s. Two samples were compared with the t test. The difference was significant statistically (p < 0.05).
MTT assay detect cell proliferation
MTT assay was used to determine the inhibitory effect on the proliferation of HepG2 cells of levopimaric acid. Compound 4 and levopimaric acid were combined with three groups below. The cells in the logarithmic growth phase were inoculated into 96-well culture plates at 3.5×10^3 cells/well, 0.2 ml per well, and incubated for 72 h with different concentrations of levopimaric acid. Then, we continually cultured it for 4 h after mixing fresh MTT working solution 20 μL (final concentration was 0.5 mg/mL), and carefully discarded the supernatant, added […] of DMSO per well and shook up. The absorbance (A) at the wavelength of 490 nm was measured by a microplate reader. The cell proliferation inhibition rate was calculated according to the following formula=[(negative control group A value - blank group A value) - (experimental group A value - blank group A value)]/ (Negative control group A value - blank group A value) × 100%.
Table S1 Compound 4 and levopimaric acid anti-HepG2 by single drug.
Concentration 4 Concentration Levopimaric acid
/μM Inhibitory rate/% Inhibitory rate/% /μM […]
Detection of cell proliferation by MTT
MTT assay was used to determine the inhibitory effect of the sample on the proliferation of HepG2 cells. The tumor cells of logarithmic growth stage were inoculated with 3.5×10^3/well in 96 well culture plate. 0.2 ml/pore system was cultured for 72 h with different concentrations of samples. Then 20 μL (final concentration 0.5 mg/mL) of MTT were added to each pore for 4 h. The supernatant was carefully adsorbed, and 0.15 mL DMSO was added to each pore, and oscillatory mixing was carried out. The absorbance (A) value at 490 nm wavelength was measured by enzyme labeling instrument.
The inhibition rate of cell proliferation was calculated as follows: [(A value of negative control group - A value of blank group) - (A value of experimental group A value of blank group)]/(negative pair […]
as §1
Thirdly, use pipette to percuss cells and make them suspend. Then, sucked the cells into a 15 mL centrifuge tube and centrifuge them for 5 min. At last, dropped the supernatant, add 1~2 mL medium to suspend the cells, and cultivated them in the culture bottle.
The first step was to add suitable trypsin digestion cells and collected the cell suspension.
Centrifuged the suspension at 1000 rpm for 5 min in the tube, and then abandoned the supernatant.
Secondly, added cryoprotectant to the cell sediment and mixed them lightly until the cell density was 1×106~1×10^7/ml. Later, divided them into 1~1.5 ml per tube, tightened the cap and made a mark on surface including the cell code and the freezing date. In the end, cooled the cells in following order: room temperature→ 4℃ (20 min) → the freezer (30 min) → low temperature refrigerator (-30℃ for 1 h) →gaseous nitrogen (30 min) →the liquid nitrogen.
as §2
First of all, digested the cells and counted them. Added 100 μL cell suspension (3×10^4 /ml) into each hole of the 96 holes cell culture plate. Secondly, placed the 96 holes cell culture plate in a 5% CO2 culture box for 24 h at 37℃. Then, used the medium to dilute the drug into the desired working fluid […]

LO2 = test system: LO2; design: method as in earlier work; conditions: LO2, 24 h; cited from earlier work
[3] = Homo sapiens, HepG2, 72 h, 72 h, MTT, read-out: inhibitory activity against HepG2, IC50

SMILES: C/C=C\C=C\C/C=C\CCCCCCCc1cccc(O)c1O [Compound 1, triene urushiol]
IC50 [1]: 66.1 µM | IC50 ([2]; Homo sapiens, HepG2, 72 h, read-out: inhibitory activity against HepG2, IC50, 72 h, MTT): < 50 µM | IC50 ([2]; read-out: inhibitory activity against HepG2, IC50, 72 h, MTT): 28.6 µM

IC50 [2, 3]: 39.5 µM
SMILES: CC(C)C1=CC[C@H]2C(=C1)CC[C@@H]1[C@]2(C)CCC[C@@]1(C)C(=O)O [Compound 5, Levopimaric Acid]
IC50 [1]: > 200 µM | inhibition at 0.585 µM ([2]; Homo sapiens, HepG2, 0.585 μM, 72 h, read-out: Inhibitory rate/%, anti-HepG2 by single drug): 4.12% | inhibition at 1.171 µM ([2]; Homo sapiens, HepG2, 1.171 μM, 72 h, read-out: Inhibitory rate/%, anti-HepG2 by single drug): 5.45% | inhibition at 2.343 µM ([2]; Homo sapiens, HepG2, 2.343 μM, 72 h, read-out: Inhibitory rate/%, anti-HepG2 by single drug): 9.45% | inhibition at 4.687 µM ([2]; Homo sapiens, HepG2, 4.687 μM, 72 h, read-out: Inhibitory rate/%, anti-HepG2 by single drug): 13.8% | inhibition at 9.375 µM ([2]; Homo sapiens, HepG2, 9.375 μM, 72 h, read-out: Inhibitory rate/%, anti-HepG2 by single drug): 32.1% | inhibition at 18.75 µM ([2]; Homo sapiens, HepG2, 18.75 μM, 72 h, read-out: Inhibitory rate/%, anti-HepG2 by single drug): 44.6% | inhibition at 37.5 µM ([2]; Homo sapiens, HepG2, 37.5 μM, 72 h, read-out: Inhibitory rate/%, anti-HepG2 by single drug): 47.2% | inhibition at 75 µM ([2]; Homo sapiens, HepG2, 75 μM, 72 h, read-out: Inhibitory rate/%, anti-HepG2 by single drug): 73.4% | inhibition at 150 µM ([2]; Homo sapiens, HepG2, 150 μM, 72 h, read-out: Inhibitory rate/%, anti-HepG2 by single drug): 91.5%

IC50 [2, 3]: 29.4 µM
SMILES: CC1C=CC(C/C=C\CCCCCCCc2cccc(O)c2O)C2(F)C(=O)OC(=O)C12F (stereo not shown) [Compound 15]
IC50 [1]: > 200 µM

SMILES: CC1C=CC(C/C=C\CCCCCCCc2cccc(O)c2O)C2(Cl)C(=O)OC(=O)C12Cl (stereo not shown) [Compound 16]
IC50 [1]: > 200 µM | IC50 ([2]; Homo sapiens, HepG2, 72 h, MTT, read-out: inhibitory activity against HepG2, IC50): 23.9 µM

SMILES: CC(=O)O[C@H]1C(=O)[C@@]2(C)[C@H]([C@H](OC(=O)c3ccccc3)[C@]3(O)C[C@H](OC(=O)[C@H](O)[C@@H](NC(=O)c4ccccc4)c4ccccc4)C(C)=C1C3(C)C)[C@]1(OC(C)=O)CO[C@@H]1C[C@@H]2O [paclitaxel]
IC50 on LO2 (LO2): 28.5 µg/mL (≈ 33.4 µM)
